The subject of data set [1] is Mammalian orthoreovirus 1. The data set is described as follows: Antiviral activity against Reovirus 1 infected in Vero cells assessed as inhibition of virus-induced cytopathic effect. It is filed as functional, organism-based.
Another data set has as its system Human respirovirus 3. The data set is described as follows: Antiviral activity against Human parainfluenza virus 3 infected in Vero cells assessed as inhibition of virus-induced cytopathic effect. It is filed as functional, organism-based. A general note: Damage to the host cells serves as the signal in cytopathic effect assays.
Data set [2] relates to Vesicular stomatitis virus. The experiment in a line: Antiviral activity against Vesicular stomatitis virus infected in HEL cells assessed as inhibition of virus-induced cytopathic effect. It is filed as functional, organism-based.
The test system of another data set is Vaccinia virus. The experiment in a line: Antiviral activity against Vaccinia virus infected in HEL cells assessed as inhibition of virus-induced cytopathic effect. It counts as functional, organism-based. The conditions noted are these: Orthopoxvirus vaccinia.
The subject of a further data set is Human alphaherpesvirus 2. The data set is described as follows: Antiviral activity against Herpes simplex virus type-2 infected in HEL cells assessed as inhibition of virus-induced cytopathic effect. It counts as functional, organism-based.
In a further data set the test system is Human alphaherpesvirus 1. The experiment in a line: Antiviral activity against Herpes simplex virus type-1 infected in HEL cells assessed as inhibition of virus-induced cytopathic effect. It counts as functional, organism-based.
For data set [3], the system named is HeLa. The data set is described as follows: Ratio of compound IC50 to 5-flurouracil IC50 for human HeLa cells. It counts as functional.
Data set [4] concerns CCRF-CEM. The data set is described as follows: Ratio of compound IC50 to 5-flurouracil IC50 for human CEM cells. It counts as functional.
Data set [5] relates to FM3A. The data set is described as follows: Ratio of compound IC50 to 5-flurouracil IC50 for mouse FM3A cells. It is filed as functional.
Data set [6] deals with L1210. The data set is described as follows: Ratio of compound IC50 to 5-flurouracil IC50 for mouse L1210 cells. It counts as functional.
The test system of data set [7] is L1210. The experiment in a line: Cytostatic activity against mouse L1210 cells after 2 days by coulter counting analysis. It is filed as functional, cell-based. The conditions noted are these: L1210, 48 h.
Data set [8] relates to FM3A. The data set is described as follows: Cytostatic activity against mouse FM3A cells after 2 days by coulter counting analysis. It counts as functional, cell-based. The following applies: 48 h.
Data set [9] deals with CCRF-CEM. The experiment in a line: Cytostatic activity against human CEM cells after 3 days by coulter counting analysis. It is filed as functional, cell-based. The following applies: 72 h.
The test system of data set [10] is HeLa. The experiment in a line: Cytostatic activity against human HeLa cells after 3 days by coulter counting analysis. It counts as functional, cell-based. The following applies: 72 h.
The test system of data set [11] is L1210. The experiment in a line: Cytostatic activity against mouse L1210 cells in presence of 20 uM thymidine. It counts as functional, cell-based.
Data set [12] relates to L1210. The experiment in a line: Cytostatic activity against mouse L1210 cells in presence of 20 uM 2'-deoxyuridine. It counts as functional, cell-based.
Data set [13] deals with L1210. The data set is described as follows: Cytostatic activity against mouse L1210 cells in presence of 500 uM uridine. It is filed as functional, cell-based.
The subject of data set [14] is L1210. The data set is described as follows: Cytostatic activity against mouse L1210 cells in presence of 500 uM uracil. It is filed as functional, cell-based.
In data set [15] the test system is HeLa. The data set is described as follows: Cytostatic activity against human HeLa cells in presence of 20 uM thymidine. It is filed as functional, cell-based.
For data set [16], the system named is HeLa. The experiment in a line: Cytostatic activity against human HeLa cells in presence of 20 uM 2'-deoxyuridine. It counts as functional, cell-based.
The test system of data set [17] is HeLa. The experiment in a line: Cytostatic activity against human HeLa cells in presence of 500 uM uridine. It is filed as functional, cell-based.
In data set [18] the test system is HeLa. The experiment in a line: Cytostatic activity against human HeLa cells in presence of 500 uM uracil. It is filed as functional, cell-based.
Data set [19] relates to L1210. The data set is described as follows: Inhibition of DNA synthesis in mouse L1210 cells assessed as [methyl-3H]thymidine incorporation in to DNA by liquid scintillation counting. It counts as functional, cell-based. In general terms: Uptake of a labelled nucleoside into DNA is a usual measure of proliferation.
For data set [20], the system named is L1210. The experiment in a line: Inhibition of DNA synthesis in mouse L1210 cells assessed as [6-3H]2'-deoxyuridine incorporation in to DNA by liquid scintillation counting. It is filed as functional, cell-based.
For data set [21], the system named is L1210. The data set is described as follows: Inhibition of RNA synthesis in mouse L1210 cells assessed as [5-3H]uridine incorporation in to RNA by liquid scintillation counting. It is filed as functional, cell-based.
Data set [22] has as its system L1210. The experiment in a line: Inhibition of DNA synthesis in mouse L1210 cells assessed as [methyl-3H]thymidine incorporation in to DNA preincubated for 24 hrs by liquid scintillation counting. It counts as functional, cell-based.
The subject of data set [23] is L1210. The experiment in a line: Inhibition of DNA synthesis in mouse L1210 cells assessed as [6-3H]2'-deoxyuridine incorporation in to DNA preincubated for 24 hrs by liquid scintillation counting. It counts as functional, cell-based.
Data set [24] has as its system L1210. The data set is described as follows: Inhibition of RNA synthesis in mouse L1210 cells assessed as [5-3H]uridine incorporation in to RNA preincubated for 24 hrs by liquid scintillation counting. It is filed as functional, cell-based.
The subject of a further data set is Punta Toro virus. The experiment in a line: Antiviral activity against Punta Toro virus infected in Vero cells assessed as inhibition of virus-induced cytopathic effect. It is filed as functional, organism-based.
Data set [25] deals with Vesicular stomatitis virus. The experiment in a line: Antiviral activity against Vesicular stomatitis virus infected in HeLa cells assessed as inhibition of virus-induced cytopathic effect. It counts as functional, organism-based.
Data set [26] deals with Respiratory syncytial virus. The experiment in a line: Antiviral activity against Respiratory syncytial virus infected in HeLa cells assessed as inhibition of virus-induced cytopathic effect. It is filed as functional, organism-based.
The next data set has as its system Sindbis virus. The experiment in a line: Antiviral activity against Sindbis virus infected in Vero cells assessed as inhibition of virus-induced cytopathic effect. It counts as functional, organism-based.
For data set [27], the system named is Coxsackievirus B4. The experiment in a line: Antiviral activity against Human coxsackievirus B4 infected in Vero cells assessed as inhibition of virus-induced cytopathic effect. It counts as functional, organism-based.
The subject of data set [28] is Coxsackievirus B4. The experiment in a line: Antiviral activity against Human coxsackievirus B4 infected in HeLa cells assessed as inhibition of virus-induced cytopathic effect. It is filed as functional, organism-based.
Data set [29] in a line: Stability of compound in phosphate buffered saline up to 3 days. It is filed as physicochemical. The conditions noted are these: buffer, 72 h.
Data set [30] in a line: Stability of compound in phosphate buffer at pH 6.2 after 60 mins. It counts as physicochemical. The following applies: pH 6.2, 1 h.
In data set [31] the target is T1, Thymidylate synthase (Mus musculus, UniProt P07607). The data set is described as follows: Inhibition of thymidylate synthase in mouse L1210 cells assessed as inhibition of tritium release from [5-3H]deoxyuridine after preincubation for 15 mins by liquid scintillation counting. It counts as cell-based.
In data set [32] the target is T1, Thymidylate synthase. The experiment in a line: Inhibition of thymidylate synthase in mouse L1210 cells assessed as inhibition of tritium release from [5-3H]deoxyuridine after preincubation for 4 hrs by liquid scintillation counting. It is filed as cell-based.
Data set [33] deals with T1, Thymidylate synthase. The experiment in a line: Inhibition of thymidylate synthase in mouse L1210 cells assessed as inhibition of tritium release from [5-3H]deoxyuridine after preincubation for 24 hrs by liquid scintillation counting. It is filed as cell-based.
Data set [34] deals with T1, Thymidylate synthase. The data set is described as follows: Inhibition of thymidylate synthase in mouse L1210 cells assessed as inhibition of tritium release from [5-3H]deoxycytidine after preincubation for 15 mins by liquid scintillation counting. It counts as cell-based.
Data set [35] addresses T1, Thymidylate synthase. The experiment in a line: Inhibition of thymidylate synthase in mouse L1210 cells assessed as inhibition of tritium release from [5-3H]deoxycytidine after preincubation for 4 hrs by liquid scintillation counting. It is filed as cell-based.
Data set [36] deals with T1, Thymidylate synthase. The data set is described as follows: Inhibition of thymidylate synthase in mouse L1210 cells assessed as inhibition of tritium release from [5-3H]deoxycytidine after preincubation for 24 hrs by liquid scintillation counting. It is filed as cell-based.

In general, IC50 refers to the concentration that gives 50% inhibition.

The structures appear in SMILES notation. Calls of active or inactive are those of the source. No cut-off for these calls is given here.

T1 sequence (P07607 whole entry): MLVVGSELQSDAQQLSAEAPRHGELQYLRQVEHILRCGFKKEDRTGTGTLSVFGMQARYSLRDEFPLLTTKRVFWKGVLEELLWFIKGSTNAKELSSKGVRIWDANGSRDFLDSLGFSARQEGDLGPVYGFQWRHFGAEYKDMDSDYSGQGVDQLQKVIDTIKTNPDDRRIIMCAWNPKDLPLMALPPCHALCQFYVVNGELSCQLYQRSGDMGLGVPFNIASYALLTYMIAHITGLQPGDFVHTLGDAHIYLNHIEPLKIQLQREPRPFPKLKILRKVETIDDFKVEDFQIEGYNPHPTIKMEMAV

`O=C1C=CCO[C@@H]1n1cc(F)c(O)nc1=O`: the outcome (in data set [1]; in the data set with Human respirovirus 3; in data set [2]; in the data set with Vaccinia virus; with Human alphaherpesvirus 2; in the data set with Human alphaherpesvirus 1) was inactive. Further, the result (with Punta Toro virus; in [25]; in data set [26]; in the data set with Sindbis virus; in the data set on Coxsackievirus B4 [27]; in the data set on Coxsackievirus B4 [28]) was inactive. Also, the Ratio in the data set with HeLa [3], with CCRF-CEM [4], in the data set with FM3A [5] and in the data set with L1210 [6] was 1.5 throughout. The IC50 in the data set with L1210 [7] was 1.3 µM; in the data set with FM3A [8], 0.23 µM; with CCRF-CEM [9], 17 µM; in the data set with HeLa [10], 0.97 µM; in the data set with L1210 [11], 75 µM; in the data set on L1210 [12], 3.5 µM. In addition, the IC50 amounted to 2 µM in the data set with L1210 [13]; 1 µM in the data set on L1210 [14]; 7.1 µM with HeLa [15]; 0.62 µM in the data set with HeLa [16]; 5.3 µM with HeLa [17]; 8 µM with HeLa [18]. In addition, the IC50 with L1210 [19] is 349 µM; with L1210 [20], 3.1 µM; in the data set with L1210 [21], 63 µM; with L1210 [22] it was 294 µM; with L1210 [23] it was 2.5 µM; in the data set with L1210 [24] it was 16 µM.
As to `C=C1[C@H](O)[C@H](O)CO[C@@H]1n1cc(F)c(=O)[nH]c1=O`, the Stability result in data set [29] and in data set [30] was “Stable” each time. The IC50 is at least 10 µM at Thymidylate synthase [31]; 3.6 µM on Thymidylate synthase [32]; 0.57 µM at Thymidylate synthase [33]; 8.2 µM on Thymidylate synthase [34]; 5.5 µM on Thymidylate synthase [35]; 5.4 µM at Thymidylate synthase [36].
Turning to `C=C1C=CCO[C@@H]1n1cc(F)c(=O)[nH]c1=O`, the Stability entry in [29] and in data set [30] was “Stable” in each case. The IC50 at Thymidylate synthase [31] is over 10 µM; on Thymidylate synthase [32], 8.7 µM; on Thymidylate synthase [33], 0.43 µM; on Thymidylate synthase [34], over 10 µM; at Thymidylate synthase [35], 9.3 µM; at Thymidylate synthase [36] it was 2.2 µM.
